Source: publication PMC10597491 (PLOS ONE, 2023)
Bridge positions count the residues as written; N and C are the ends. Ends that are not written are not given here.

Legend:
human PBMCs = experiment: pSTAT5 flow cytometry in human PBMC subsets; assay type: cell-based
Source text: Frozen PBMCs from 5 healthy human donors (A, B) and cynomolgus monkey (C) were rested (A, C) or activated with anti-CD3/CD28 (B). Cells were stained for viability, followed by cell surface antibody staining on ice. […] After washing, cells were fixed, permeabilized, stained with anti-pSTAT5 antibody, and analyzed immediately by flow cytometry. The mean fluorescence intensity (MFI) of pSTAT5 detection was shown as mean ± SEM. […] Flow cytometry gating data shown in S2 Fig.
To detect phopho-STAT5 in immune subsets of PBMCs by flow cytometry, frozen human and cynomolgus macaques PBMCs (Stemcell Technologies, Cat# 70025.2 and iQ Biosciences, Cat# IQB-MnPB102, respectively) from 5 different healthy donors were thawed and rested overnight in T-cell media (CTS™ OpTmizer™ T-Cell Expansion SFM, ThermoFisher Scientific Cat# A1048501) at 37°C. Cells were stained with a viability dye for 30 min at 37°C followed by surface marker antibodies for 30 min on ice (S3 Table), then treated with serially diluted test compounds in the medium for 30 min. […] Antibody-stained cells were analyzed immediately by flow cytometry using the Novocyte Advanteon instrument (Agilent), and the data were analyzed using FlowJo software. Fluorescence minus one (FMO) controls were used to draw gates. […]

[1] = Plasma stability in vitro, human plasma; assay type: in vitro ADME; design: dose or concentration left out as unconfirmed; conditions: 37°C, incubated in duplicate, intact peptide by LC/MS/MS, read-out: t1/2 in human plasma (converted)
Source text: Affinity maturation of these initial families produced ligands with improved affinities; and combinations of these ligands (one each for IL-7Rα and γc) were joined into heterodimers in a variety of orientations (i.e., joined by N-termini, C-termini, or N-to-C termini), with several connection chemistries, for testing as IL-7R agonists in cell-based assays. The lead peptide agonist for detailed characterization, as described here, is a fusion of peptides MDK1248 and MDK1188, joined with a short intervening linker to form the single-chain peptide MDK1472. The peptides were analyzed for sequence similarity to IL-7, and none was found.
Supplementary file pone.0286834.s001.pptx: S1 Fig Plasma stability of MDK 1472 in vitro. […] MDK1472 or control peptide YGGFL incubated in duplicate in human or cynomolgus plasma at 37°C. At indicated time points, compounds were isolated from the plasma and the quantity of intact peptides measured by LC/MS/MS (Study performed by Quintara Discovery, Hayward, CA). (PPTX) Click here for additional data file.

IL-7R = biological target: T1, IL-7R (Homo sapiens, UniProt P16871+P31785); experiment: STAT5 phosphorylation in TF1-7Rα cells; assay type: cell-based
T1 construct: constructed to express full-length human IL-7Rα in TF-1 cells; TF-1 cells, which naturally express γc, but not IL-7Rα; expressed in transfected cells
T1 sequence (P16871 21-459): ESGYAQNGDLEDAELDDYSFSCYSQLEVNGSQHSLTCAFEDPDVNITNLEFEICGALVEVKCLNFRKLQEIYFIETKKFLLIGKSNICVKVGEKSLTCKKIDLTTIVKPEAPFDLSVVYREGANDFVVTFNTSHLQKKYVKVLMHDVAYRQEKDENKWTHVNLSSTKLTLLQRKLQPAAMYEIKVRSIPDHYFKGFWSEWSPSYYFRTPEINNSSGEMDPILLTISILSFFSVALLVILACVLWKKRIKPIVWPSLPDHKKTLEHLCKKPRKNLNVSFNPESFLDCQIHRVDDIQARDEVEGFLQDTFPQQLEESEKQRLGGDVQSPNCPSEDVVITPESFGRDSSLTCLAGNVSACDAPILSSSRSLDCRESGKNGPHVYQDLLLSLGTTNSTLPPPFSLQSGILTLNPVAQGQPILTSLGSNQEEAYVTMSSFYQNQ
T1 sequence (P31785 23-369): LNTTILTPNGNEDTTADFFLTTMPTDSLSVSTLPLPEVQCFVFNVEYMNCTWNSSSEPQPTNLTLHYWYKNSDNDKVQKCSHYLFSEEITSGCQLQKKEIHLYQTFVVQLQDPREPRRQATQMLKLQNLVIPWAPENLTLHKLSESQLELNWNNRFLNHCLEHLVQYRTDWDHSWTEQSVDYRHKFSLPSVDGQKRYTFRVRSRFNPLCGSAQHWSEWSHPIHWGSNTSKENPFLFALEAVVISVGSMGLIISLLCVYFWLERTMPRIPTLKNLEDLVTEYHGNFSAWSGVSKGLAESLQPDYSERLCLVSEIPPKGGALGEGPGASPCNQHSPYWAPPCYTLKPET
Description: The synthetic peptide MDK1472 was designed to bind simultaneously to IL-7Rα and γc subunits and was tested for its ability to induce phosphorylation of STAT5, the primary IL-7R signaling pathway.
Reactions were stopped and cell lysates prepared for pSTAT5 analysis.
Cells were deprived of growth factors by overnight incubation at 5×10^5 cells/mL in starvation medium (RPMI 1640 + 4.5 g/L glucose + 0.2% FBS + 2 mM L-glutamine + 1 mM NaPyr + 10 mM HEPES + 0.5x penicillin-streptomycin with no cytokine supplement) in T75 flasks. For assays, cells were plated in 96-well V-bottom plates at 2×10^5 cells/well. Three-fold serial dilutions in starvation medium of the test compounds or cytokine were added to the cells and incubated for 30 min at 37°C. Following incubation, cell extracts were prepared by adding a mixture of 10x Cell Lysis Buffer (Cell Signaling Technology Cat# 9803) and 100x HALT Phosphatase and Protease Inhibitor Cocktail (Thermo Fisher Cat# 78442) directly to the wells. The plates were agitated at 25°C for 5 min to prepare cell extracts for immediate use or to be stored at -80°C until assay. Detection of pSTAT5 was performed using a PathScan® Phospho-Stat5 (pTyr694) Sandwich ELISA Kit (Cell Signaling Technology Cat# 7113). Detection of pSTAT6 was performed using a PathScan® Phospho-Stat6 (pTyr641) Sandwich ELISA Kit (Cell Signaling Technology Cat# 7275). Detection of pSTAT3 was performed using a PathScan® Phospho-Stat3 (pTyr705) Sandwich ELISA Kit (Cell Signaling Technology Cat# 7300). Cell lysates were added to pre-coated ELISA wells and incubated at 4°C overnight. Primary and secondary antibody incubations and wash steps were performed according to the protocols supplied by the manufacturer. Assays were developed using TMB substrate (Surmodics Cat# TMBW-1000-01) for 5–10 min at 25°C and the reaction was stopped using STOP solution (Surmodics Cat# LSTP-1000-01).

Substance	pSTAT5 response of NK cells (human PBMCs)	half-life [1] [h]	EC50 (IL-7R; Fig 4A dose response, 30 min at 37°C, pSTAT5 ELISA) [nM]	efficacy (Emax) of STAT5 phosphorylation relative to IL-7 (IL-7R; TF1-7Rα cells, Fig 3)	dependence of agonist activity on IL-7Rα expression (IL-7R; TF-1 parental (γc+) versus TF1-7Rα cells)
IL-7: human IL-7 cytokine (Peprotech)	no pSTAT5 response	–	–	–	–
Ac-GWGIPWCTLDPGSLQCAWLGKHGGGGSGGVVCQDWEGVELCWQGG (disulfide 7-16, 32-41) [MDK1472]	–	60	18	full efficacy	completely dependent on IL-7Rα expression
